Test results published in PubChem BioAssay AID1918934 (Molecular Pharmacology Branch, DTP, NCI, 2023).

Test system: 292921-168-R-J2-PDC complex spheroid viability
Test: Anticancer human tumor 292921-168-R-J2-PDC patient-derived pancreatic carcinoma cell line growth inhibition
Conditions: for IC50: curve of first compound; for viability, T/C: stronger effect = lower value
Text: Multicellular complex tumor spheroid response to LSD1 Inhibitor Iadademstat in combination with a variety of drugs and investigational agents in selected tumor cell lines
The current study was undertaken to assess response to LSD1 inhibitors in combination with standard-of-care drugs and investigational agents in solid tumor complex spheroid models as well as in the K-562 leukemia. Complex spheroids include a stromal component modeled by human endothelial cells (HUVEC) and fibroblasts modeled by human mesenchymal stem cells (MSCs). The concentration ranges selected for each drug and investigational agent were based upon clinically achievable concentrations if the clinical Cmax of the agent was known.
Compounds. The drugs and investigational agents used in this study are listed on Table 1. All of the agents used, including staurosporine (NSC755774) and gemcitabine (NSC613327), were obtained from the Developmental Therapeutics Program, NCI. FDA-approved anticancer drugs are available from the NCI at http://dtp.nci.nih.gov/branches/dscb/oncology_drugset_explanation.html. Drugs and investigational agents were >95% pure by proton nuclear magnetic resonance (NMR) and liquid chromatography/mass spectrometry (LC/MS). Stock solutions were prepared at 400x in DMSO, stored at -70 degrees C, and diluted in fresh medium prior to their use. The final concentration of DMSO in cell culture wells never exceeded 0.25% (v/v). The FDA-approved anticancer drug set is available from the Developmental Therapeutics Program at https://dtp.cancer.gov/organization/dscb/obtaining/available_plates.htm. All drugs and investigational agents were tested over a range starting from a high concentration at or near the clinical Cmax and decreasing in half-log increments. If the clinical Cmax for an agent had not been determined, the highest concentration tested was 10 microM.
Cell Lines. The patient-derived cancer cell (PDC) lines: 292921-168-R-J2-PDC, K24384-001-R-PDC, and 521955-158-R2-J5-PDC pancreatic carcinomas, 556581-035-R-J1 ovarian carcinoma, 324938-238-R-J1-PDC, 855422-203-R-J1-PDC and 883617-216-R-J1-PDC urothelial bladder carcinomas, 743489-274-T-PDC renal cell carcinoma, 138582-R-J1 Merkel cell tumor, K60290-347-R-J1 and K57222-313-R-J1-PDC glioblastomas, 653999-131-R-J2-PDC, LG0703-F948-PDC, and 349418-098-R-PDC non-small cell lung carcinomas, 885512-296-R-J2-PDC, 171881-019-R-J1-PDC breast carcinomas and 186277-243-T-J2-PDC and 233499-124-R-J2-PDC colon carcinomas were obtained from the NCI Patient-Derived Models Repository (PDMR, https://pdmr.cancer.gov). The established cell lines NCI/ADR-RES (RRID:CVCL_14520 and OVCAR-5 (RRID:CVCL_1628) ovarian carcinomas, 786-O (RRID:CVCL_1051) and A498 (RRID:CVCL_A498) renal cell carcinoma, NCI-H211 (ATCC, cat. CRL-5824; RRID:CVCL_1529), NCI-H196 (ATCC, cat. CRL-5823, RRID:CVCL_1509), SW 1271 (ATCC, cat. CRL-2177, RRID:CVCL_1716) and NCI-H1876 (ATCC, cat. CRL-5902, RRID:CVCL_1503) small cell lung carcinomas, MDA-MB-231 (RRID:CVCL_0062) and MDA-MB-468 (RRID:CVCL_0419)breast carcinomas (10-12). Pooled donor human umbilical vein endothelial cells (HUVEC, Lonza, cat. CC-2519) and human mesenchymal stem cells (hMSC, Lonza, cat. PT-2501) were purchased from Lonza (Walkersville, MD).
Cell Culture. All cells were maintained in an incubator at 37 degrees C and 5% CO2 with 95% humidity. The PDC lines were cultured according to standard operating procedures established by the NCI PDMR (https://pdmr.cancer.gov). Briefly all PDCs were thawed and cultured in Matrigel-coated flasks prepared with a working solution of 1X Ham's F-12 nutrient mix, without supplementation (Invitrogen, Waltham, MA, cat. 11765054), 100 U/mL penicillin-streptomycin (Invitrogen, cat. 15140122), and 2.5% Matrigel (Corning Inc., Corning, NY, cat. 354248) for the first three passages. […]

[1] = second compound 0.1 µM, first compound 0.000949 µM
[2] = second compound 0.1 µM, first compound 0.003 µM
[3] = second compound 0.1 µM, first compound 0.00949 µM
[4] = second compound 0.1 µM, first compound 0.03 µM
[5] = second compound 0.1 µM, first compound 0.0949 µM
[6] = second compound 0.1 µM, first compound 0.3 µM
[7] = second compound 0.316 µM, first compound 0.000949 µM
[8] = second compound 0.316 µM, first compound 0.003 µM
[9] = second compound 0.316 µM, first compound 0.00949 µM
[10] = second compound 0.316 µM, first compound 0.03 µM
[11] = second compound 0.316 µM, first compound 0.0949 µM
[12] = second compound 0.316 µM, first compound 0.3 µM
[13] = second compound 1 µM, first compound 0.000949 µM
[14] = second compound 1 µM, first compound 0.003 µM
[15] = second compound 1 µM, first compound 0.00949 µM
[16] = second compound 1 µM, first compound 0.03 µM
[17] = second compound 1 µM, first compound 0.0949 µM
[18] = second compound 1 µM, first compound 0.3 µM
[19] = second compound 3.16 µM, first compound 0.000949 µM
[20] = second compound 3.16 µM, first compound 0.003 µM
[21] = second compound 3.16 µM, first compound 0.00949 µM
[22] = second compound 3.16 µM, first compound 0.03 µM
[23] = second compound 3.16 µM, first compound 0.0949 µM
[24] = second compound 3.16 µM, first compound 0.3 µM
[25] = second compound 10 µM, first compound 0.000949 µM
[26] = second compound 10 µM, first compound 0.003 µM
[27] = second compound 10 µM, first compound 0.00949 µM
[28] = second compound 10 µM, first compound 0.03 µM
[29] = second compound 10 µM, first compound 0.0949 µM
[30] = second compound 10 µM, first compound 0.3 µM
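Also: seven day compound exposure before luminescent viability read.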
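For viability, T/C in this document: 100% = DMSO vehicle control wells.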

## CCc1c2c(nc3ccc(O)cc13)-c1cc3c(c(=O)n1C2)COC(=O)[C@]3(O)CC + NC1CC1c1ccc(-c2cccc(O)c2)cc1
Second compound 0.1 µM
  IC50: < 0.949 nM
Second compound 0.316 µM
  IC50: < 0.949 nM
Second compound 1 µM
  IC50: < 0.949 nM
Second compound 3.16 µM
  IC50: < 0.949 nM
Second compound 10 µM
  IC50: < 0.949 nM
[1]
  viability, T/C: 4.87%
[2]
  viability, T/C: 2.64%
[3]
  viability, T/C: 1.33%
[4]
  viability, T/C: 1.09%
[5]
  viability, T/C: 0.85%
[6]
  viability, T/C: 1.26%
[7]
  viability, T/C: 4.37%
[8]
  viability, T/C: 2.24%
[9]
  viability, T/C: 1.21%
[10]
  viability, T/C: 0.88%
[11]
  viability, T/C: 1.1%
[12]
  viability, T/C: 1.26%
[13]
  viability, T/C: 4.54%
[14]
  viability, T/C: 2.69%
[15]
  viability, T/C: 1.23%
[16]
  viability, T/C: 1.12%
[17]
  viability, T/C: 1.21%
[18]
  viability, T/C: 1.22%
[19]
  viability, T/C: 4.42%
[20]
  viability, T/C: 2.55%
[21]
  viability, T/C: 1.18%
[22]
  viability, T/C: 0.79%
[23]
  viability, T/C: 1.06%
[24]
  viability, T/C: 1.13%
[25]
  viability, T/C: 5.79%
[26]
  viability, T/C: 3.19%
[27]
  viability, T/C: 1.1%
[28]
  viability, T/C: 1.82%
[29]
  viability, T/C: 2.43%
[30]
  viability, T/C: 1.15%

## Nc1ccn(C2OC(CO)C(O)C2(F)F)c(=O)n1 (stereo not given) + NC1CC1c1ccc(-c2cccc(O)c2)cc1
Second compound 0.1 µM
  IC50: < 0.949 nM
Second compound 0.316 µM
  IC50: < 0.949 nM
Second compound 1 µM
  IC50: < 0.949 nM
Second compound 3.16 µM
  IC50: < 0.949 nM
Second compound 10 µM
  IC50: < 0.949 nM
[1]
  viability, T/C: 29.5%
[2]
  viability, T/C: 10.6%
[3]
  viability, T/C: 6.54%
[4]
  viability, T/C: 5.59%
[5]
  viability, T/C: 7.33%
[6]
  viability, T/C: 5.81%
[7]
  viability, T/C: 30.2%
[8]
  viability, T/C: 9.61%
[9]
  viability, T/C: 4.8%
[10]
  viability, T/C: 5.72%
[11]
  viability, T/C: 5.73%
[12]
  viability, T/C: 5.51%
[13]
  viability, T/C: 27%
[14]
  viability, T/C: 8.35%
[15]
  viability, T/C: 5.25%
[16]
  viability, T/C: 5.86%
[17]
  viability, T/C: 5.98%
[18]
  viability, T/C: 6.01%
[19]
  viability, T/C: 27.8%
[20]
  viability, T/C: 10%
[21]
  viability, T/C: 5.33%
[22]
  viability, T/C: 6.76%
[23]
  viability, T/C: 5.59%
[24]
  viability, T/C: 6.51%
[25]
  viability, T/C: 28.4%
[26]
  viability, T/C: 11.2%
[27]
  viability, T/C: 7.89%
[28]
  viability, T/C: 7.46%
[29]
  viability, T/C: 7.74%
[30]
  viability, T/C: 7.58%

## O=C(c1cc(Cc2n[nH]c(=O)c3ccccc23)ccc1F)N1CCN(C(=O)C2CC2)CC1 + NC1CC1c1ccc(-c2cccc(O)c2)cc1
Second compound 0.1 µM
  IC50: 4420 nM
Second compound 0.316 µM
  IC50: 2650 nM
Second compound 1 µM
  IC50: 2180 nM
Second compound 3.16 µM
  IC50: 1390 nM
Second compound 10 µM
  IC50: 278 nM
Second compound 0.1 µM, first compound 0.0316 µM
  viability, T/C: 89.5%
Second compound 0.1 µM, first compound 0.1 µM
  viability, T/C: 104%
Second compound 0.1 µM, first compound 0.316 µM
  viability, T/C: 78.8%
Second compound 0.1 µM, first compound 1 µM
  viability, T/C: 74.3%
Second compound 0.1 µM, first compound 3.16 µM
  viability, T/C: 58.1%
Second compound 0.1 µM, first compound 10 µM
  viability, T/C: 33.1%
Second compound 0.316 µM, first compound 0.0316 µM
  viability, T/C: 75%
Second compound 0.316 µM, first compound 0.1 µM
  viability, T/C: 67.8%
Second compound 0.316 µM, first compound 0.316 µM
  viability, T/C: 67%
Second compound 0.316 µM, first compound 1 µM
  viability, T/C: 68.9%
Second compound 0.316 µM, first compound 3.16 µM
  viability, T/C: 46.6%
Second compound 0.316 µM, first compound 10 µM
  viability, T/C: 31.2%
Second compound 1 µM, first compound 0.0316 µM
  viability, T/C: 60.1%
Second compound 1 µM, first compound 0.1 µM
  viability, T/C: 69.2%
Second compound 1 µM, first compound 0.316 µM
  viability, T/C: 64.5%
Second compound 1 µM, first compound 1 µM
  viability, T/C: 64.5%
Second compound 1 µM, first compound 3.16 µM
  viability, T/C: 43.1%
Second compound 1 µM, first compound 10 µM
  viability, T/C: 32.3%
Second compound 3.16 µM, first compound 0.0316 µM
  viability, T/C: 64.5%
Second compound 3.16 µM, first compound 0.1 µM
  viability, T/C: 60.1%
Second compound 3.16 µM, first compound 0.316 µM
  viability, T/C: 63%
Second compound 3.16 µM, first compound 1 µM
  viability, T/C: 54.1%
Second compound 3.16 µM, first compound 3.16 µM
  viability, T/C: 39%
Second compound 3.16 µM, first compound 10 µM
  viability, T/C: 32.8%
Second compound 10 µM, first compound 0.0316 µM
  viability, T/C: 61.3%
Second compound 10 µM, first compound 0.1 µM
  viability, T/C: 51.2%
Second compound 10 µM, first compound 0.316 µM
  viability, T/C: 53.6%
Second compound 10 µM, first compound 1 µM
  viability, T/C: 42.2%
Second compound 10 µM, first compound 3.16 µM
  viability, T/C: 34%
Second compound 10 µM, first compound 10 µM
  viability, T/C: 29.6%
